The text below walks through data of ChEMBL document CHEMBL4387772, “Design, synthesis and biological evaluation of hypolipidemic compounds based on BRD4 inhibitor RVX-208” (Bioorg Med Chem Lett, 2019).

For experiment [1], the target named is Bromodomain-containing protein 4 (Homo sapiens, UniProt O60885). Briefly: Inhibition of BRD4 bromodomain 2 (unknown origin) incubated for 30 mins by ELISA.
A further experiment has as its system HepG2. The experiment in a line: Up regulation of ApoA1 mRNA expression in human HepG2 cells at 100 uM by RT-PCR analysis relative to control. The experiment is classed as functional.
Experiment [2] deals with Rattus norvegicus. The experiment in a line: Antihyperlipidemic activity in Sprague-Dawley rat assessed as decrease in triglyceride level at 30 mg/kg, po administered twice daily for 1 week measured 2 hrs post-last dose by GPO-PAP analysis relative to control. Format: functional. Also on record: scale not given: the % may be the effect or the level left.
The subject of experiment [3] is Rattus norvegicus. The experiment in a line: Antihyperlipidemic activity in Sprague-Dawley rat assessed as increase in HDL-C level at 30 mg/kg, po administered twice daily for 1 week measured 2 hrs post-last dose by HPLC analysis relative to control. Format: functional.
For experiment [4], the system named is Rattus norvegicus. The experiment in a line: Antihyperlipidemic activity in po dosed Sprague-Dawley rat assessed as decrease in triglyceride level administered twice daily for 1 week measured 2 hrs post-last dose by GPO-PAP analysis relative to control. Format: functional. On the set-up: scale not given: the % may be the effect or the level left.
Experiment [5] relates to Rattus norvegicus. Briefly: Antihyperlipidemic activity in po dosed Sprague-Dawley rat assessed as increase in HDL-C level administered twice daily for 1 week measured 2 hrs post-last dose by HPLC analysis relative to control. The experiment is classed as functional.

Where only a bound is given, the exact number is not on record here.

In experiment [1], `COc1cc(OC)c2c(=O)[nH]c(-c3cc(OC)c(OC(=O)CC(=O)OC(C)(C)C(=O)O)c(OC)c3)nc2c1` displayed an IC50 of more than 100 nM. Moreover, the Activity in the experiment with HepG2 was determined as 37.34%; with Rattus norvegicus [2] it was 50.36%; in the experiment with Rattus norvegicus [3], 21.58%.
Taken in the same sequence, the figures for `COc1cc(OC)c2c(=O)[nH]c(-c3cc(OC)c(OC(=O)C(C)(C)Br)c(OC)c3)nc2c1` were 20.9 nM, 44.82%, 41.63% and 32.74%.
For `COc1cc(OC)c2c(=O)[nH]c(-c3cc(C)c(OC(=O)C(C)(C)Oc4ccc(Cl)cc4)c(C)c3)nc2c1` the same measures were 39.6 nM, 38.09%, 34.85% and 22.5%.
In experiment [1], `COc1cc(OC)c2c(=O)[nH]c(-c3cc(C)c(OC(=O)C(C)(C)Br)c(C)c3)nc2c1` showed a concentration for half-maximal inhibition (IC50) of 53.8 nM. For the same molecule, the Activity with HepG2 is listed as 34.85%; in the experiment with Rattus norvegicus [2], 36.21%; in the experiment with Rattus norvegicus [3], 19.33%.
For `COc1cc(OC)c2c(=O)[nH]c(-c3cc(C)c(OC(=O)CC(=O)OC(C)(C)C(=O)O)c(C)c3)nc2c1` the same measures were more than 100 nM, 21.67%, 48.59% and 16.46%.
Taken in the same sequence, the figures for `COc1cc(OC)c2c(=O)[nH]c(-c3ccc(C(=O)OCCO)cc3)nc2c1` were 71 nM, 25.3%, 11.94% and 16.51%.
For `COc1cc(OC)c2c(=O)[nH]c(-c3cc(OC)c(OC(=O)C(C)(C)Oc4ccc(Cl)cc4)c(OC)c3)nc2c1` the same measures were 9.7 nM, 42.65%, 37.34% and 29.39%.
On to `COc1cc(OC)c2c(=O)[nH]c(-c3cc(OC)c(OCCO)c(OC)c3)nc2c1`, for which the half-maximal inhibitory concentration (IC50) in experiment [1] turned out to be 27.5 nM. The Activity in the experiment with HepG2 amounted to 32.77%; in the experiment with Rattus norvegicus [2], 5.07%; in the experiment on Rattus norvegicus [3] it was 20.61%.
As for `COc1cc(OC)c2c(=O)[nH]c(-c3cc(C)c(OCCO)c(C)c3)nc2c1` [APABETALONE], the Activity with HepG2 is listed as 38.91%; in the experiment with Rattus norvegicus [4] it was 3.13%; with Rattus norvegicus [5], 23.84%.
`CCOC(=O)C(C)(C)Oc1ccc(Cl)cc1` [CLOFIBRATE]: the Activity in the experiment on Rattus norvegicus [4] was 41.35%; in the experiment on Rattus norvegicus [5], 5.92%.
For `Cc1ccc(C)c(OCCCC(C)(C)C(=O)O)c1` [GEMFIBROZIL] the same measures were 39.66% and 7.03%.
